Source: patent US20110053773A1, “METHODS OF IMPROVING NUTRITIONAL VALUE OF PLANTS” (UNIVERSITY OF TENNESSEE RESEARCH FOUNDATION, priority 2009, published 2011)

What was measured:
Format in all cases: in vivo
[1] = tested on: sweet corn variety WH0809; assay: Sugar content of sweet corn kernels (Example 2); details: for Sugar content Raffanose: treated check 0.51; for Sugar content Maltose: treated check 0.61; for Sugar content Fructose: treated check 1.04; for Sugar content Glucose: treated check 1.91; for Sugar content Sucrose: treated check 10.72
Experimental: (§1) A field study was conducted at Greenback, TN to investigate POST applications of several herbicide inhibitors of photosynthesis for sweet corn safety and for changes in carbohydrate content in the kernels of sweet corn among treatments. Treatments included bentazon at 1120 and 2240 g ai/ha, linuron at 280 and 560 g ai/ha, metribuzin at 105 and 210 g ai/ha, and bromoxynil at 560 and 1120 g ai/ha. All treatments included a PRE application of a common residual corn herbicide in order to maintain weed free conditions. […] Sweet corn was harvested from the center two rows of each four row plot and weighed in the husk. Eight ears of corn were harvested from each plot and were pooled over replicates for analysis of key carbohydrates which included the sugars sucrose, fructose, glucose, maltose, and raffanose.

[2] = tested on: sweet corn variety WH0809; assay: Visual injury of sweet corn after POST herbicide inhibitors of photosynthesis (Example 2)
Experimental: as §1

[3] = tested on: sweet corn variety WH0809; assay: Sweet corn yield, harvested and weighed in the husk (Example 2); details: treated check 9758.4
Experimental: as §1

CSc1nnc(C(C)(C)C)c(=O)n1N [METRIBUZIN, metribuzin]
Sugar content Raffanose ([1]; 105 g ai/ha + COC 1% v/v POST): 0.36 mg/g dw | Sugar content Maltose ([1]; 105 g ai/ha + COC 1% v/v POST): 0.49 mg/g dw | Sugar content Fructose ([1]; 105 g ai/ha + COC 1% v/v POST): 1.04 mg/g dw | Sugar content Glucose ([1]; 105 g ai/ha + COC 1% v/v POST): 1.79 mg/g dw | Sugar content Sucrose ([1]; 105 g ai/ha + COC 1% v/v POST): 9.35 mg/g dw | fructose increase compared to the untreated check ([1]; 210 g ai/ha): 115% | glucose increase compared to the untreated check ([1]; 210 g ai/ha): 106% | maltose increase compared to the untreated check ([1]; 210 g ai/ha): 74% | raffanose increase compared to the untreated check ([1]; 210 g ai/ha): 59% | sucrose increase compared to the untreated check ([1]; 210 g ai/ha): 103% | Sugar content Raffanose ([1]; 210 g ai/ha + COC 1% v/v POST): 0.81 mg/g dw | Sugar content Maltose ([1]; 210 g ai/ha + COC 1% v/v POST): 1.06 mg/g dw | Sugar content Fructose ([1]; 210 g ai/ha + COC 1% v/v POST): 2.24 mg/g dw | Sugar content Glucose ([1]; 210 g ai/ha + COC 1% v/v POST): 3.93 mg/g dw | Sugar content Sucrose ([1]; 210 g ai/ha + COC 1% v/v POST): 21.79 mg/g dw | Injury ([2]; 105 g ai/ha + COC 1% v/v POST, 1st of 3 Injury columns, rating date not given): 12% | Injury ([2]; 105 g ai/ha + COC 1% v/v POST, 2nd of 3 Injury columns (agrees with 14 DAT of b67)): 13% | Injury ([2]; 105 g ai/ha + COC 1% v/v POST, 3rd of 3 Injury columns, rating date not given): 5% | Injury ([2]; 210 g ai/ha + COC 1% v/v POST, 1st of 3 Injury columns, rating date not given): 17% | Injury ([2]; 210 g ai/ha + COC 1% v/v POST, 2nd of 3 Injury columns (agrees with 14 DAT of b67)): 30% | Injury ([2]; 210 g ai/ha + COC 1% v/v POST, 3rd of 3 Injury columns, rating date not given): 22% | YIELD ([3]; 105 g ai/ha + COC 1% v/v POST): 10715.4 kg | YIELD ([3]; 210 g ai/ha + COC 1% v/v POST): 8967.5 kg
